Measured values reported in patent US7709482B2, “Polycyclic heteroaryl substituted triazoles useful as Axl inhibitors” (Rigel Pharmaceuticals, Inc., priority 2006, dated 2010).

These molecules were tested against T1, Axl (Homo sapiens, UniProt P30530) (assay: Phospho-Akt In-Cell Western Assay (inhibition of Axl activity after Axl-antibody cross-linking)). Details: not given.
T1 construct: endogenous in cells; host or cells: HeLa cells
T1 sequence (P30530 26-894): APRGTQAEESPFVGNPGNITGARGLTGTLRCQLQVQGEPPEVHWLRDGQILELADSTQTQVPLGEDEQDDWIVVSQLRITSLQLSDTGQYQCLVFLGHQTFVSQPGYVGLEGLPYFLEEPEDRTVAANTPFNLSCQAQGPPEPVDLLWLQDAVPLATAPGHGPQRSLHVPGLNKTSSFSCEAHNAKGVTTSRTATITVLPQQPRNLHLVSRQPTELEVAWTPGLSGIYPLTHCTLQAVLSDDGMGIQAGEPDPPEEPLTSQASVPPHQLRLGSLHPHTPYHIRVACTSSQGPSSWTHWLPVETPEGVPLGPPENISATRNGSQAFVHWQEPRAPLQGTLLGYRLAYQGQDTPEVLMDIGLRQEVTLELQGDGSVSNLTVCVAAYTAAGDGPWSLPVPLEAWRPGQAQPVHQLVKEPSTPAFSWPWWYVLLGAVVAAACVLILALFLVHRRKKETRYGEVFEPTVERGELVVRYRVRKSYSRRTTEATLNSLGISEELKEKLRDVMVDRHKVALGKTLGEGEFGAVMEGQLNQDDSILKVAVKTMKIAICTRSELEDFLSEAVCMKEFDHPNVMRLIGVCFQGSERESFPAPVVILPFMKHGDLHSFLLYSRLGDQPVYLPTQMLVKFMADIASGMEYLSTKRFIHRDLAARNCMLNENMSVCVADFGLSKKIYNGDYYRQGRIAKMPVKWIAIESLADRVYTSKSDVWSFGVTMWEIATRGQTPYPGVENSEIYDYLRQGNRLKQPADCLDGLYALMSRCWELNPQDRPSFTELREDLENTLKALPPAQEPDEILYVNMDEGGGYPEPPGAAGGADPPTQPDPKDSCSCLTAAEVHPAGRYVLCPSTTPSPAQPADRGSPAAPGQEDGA
Assay type: cell-based
Protocol: The compounds of the invention were tested in the following assay for their ability to inhibit Axl activity.
Phospho-Akt In-Cell Western Assay
• Cell culture plate: 96 well assay plate (Corning 3610), white, clear bottom, tissue-culture treated. • Cells: Hela cells. • Starvation medium: For Axl stimulation: 0.5% FCS (fetal calf serum) in DMEM, plus Axl/Fc (extracellular domain of AXL fused to immunoglobulin Fc region) (R&D, 154-AL) 500 ng/mL. • For EGF (epidermal growth factor) stimulation: 0.5% FCS in DMEM (Dulbecco's modified Eagles medium). • Poly-L-Lysine 0.01% solution (the working solution): […], dilute In PBS (phosphate buffered saline). • Axl antibody cross-linking: • 1st: Mouse anti-Axl (R&D, MAB154). • 2nd: Biotin-SP-conjugated AffiniPure goat anti-mouse IgG (H+ L) (Jackson ImmunoResearch #115-065-003). • Fixing buffer: 4% formaldehyde in PBS. • Wash buffer: 0.1% TritonX-100 in PBS. • Quenching buffer: 3% H2O2, 0.1% Azide in wash buffer, Azide and hydrogen peroxide (H2O2) are added fresh. • Blocking buffer: 5% BSA in TBST (tris buffered saline plus 0.1% Tween 20). • Primary antibody: Rabbit anti-human Phospho-Akt antibody (Cell Signaling 9271): 1×250 diluted in blocking buffer. • Secondary antibody: HRP (horse radish peroxidase)-conjugated Goat anti-Rabbit secondary, stock solution: Jackson ImmunoResearch (Goat anti-Rabbit HRP, #111-035-144) 1:1 diluted in glycerol, store at −20° C. The working solution: 1×2000 dilution of stock in blocking buffer. • Chemiluminescent working solution (Pierce, 37030): SuperSignal ELISA (enzyme linked immunosorbant assay) Pico Chemiluminescent substrate. • Crystal Violet solution: Stock: 2.5% Crystal violet in methanol, filtered and kept at ambient temperature. The working solution: dilute the stock 1:20 with PBS immediately before use. • 10% SDS: working solution: 5% SDS (sodium dodecylsulfate), diluted in PBS Methods: Day 1:
A 96 well TC (tissue culture treated) plate was coated with 10 μg/mL poly-L-Lysine at 37° C. for 30 min, washed twice with PBS, and air-dried for 5 minutes before cells were added. Hela cells were seeded at 10,000 cells/well and the cells were starved in 100 μL starvation medium containing Axl/Fc for 24 hrs.
The cells were pre-treated with test compounds by adding 100 μL of 2× test compound to the starvation medium on the cells. The cells were incubated at 37° C. for 1 hr before stimulation.
The resulting mix was warmed to 37° C. 50 μL of 5×Axl 1st/2nd of antibody cluster was added to the cells and the cells were incubated at 37° C. for 5 min.
After 5 minutes stimulation, the plate was flicked to remove medium and the plate was tapped onto paper towels. Formaldehyde (4.0% in PBS, 100 μL) was added to fix the cells and the cells were incubated at ambient temperature for 20 min without shaking.
The cells were washed with a plate washer buffer to remove the formaldehyde solution. The plate was flicked to removed excess wash buffer and tapped onto paper towels. Quenching buffer (100 μL) was added to each well and the cells were incubated at ambient temperature for 20 minutes without shaking.
The cells were washed with a plate washer buffer to remove the quenching buffer. Blocking buffer (100 μL) was added and the cells were incubated at ambient temperature for at least an hour with gentle shaking.
The cells were washed with a plate washer buffer and diluted primary antibody (50 μL) was added to each well (blocking buffer was added to the negative control wells instead). The plates were incubated overnight at 4° C. with gentle shaking.
The wash buffer was removed, diluted secondary antibody (100 μL) was added, and the cells were incubated at ambient temperature for 1 hour with gentle shaking. During the incubation, the chemiluminescent reagent was brought to ambient temperature.
The secondary antibody was removed by washing the cells 1× with wash buffer, 1× with PBS by plate washer.
`Nc1nc(Nc2ccc(N3CCC(N4C(=O)Cc5ccccc54)CC3)c(F)c2)nn1-c1cc2c(nn1)-c1ccccc1CCC2` [Compound 7, 1-(6,7-dihydro-5H-benzo[6,7]cyclohepta[1,2-c]pyridazin-3-yl)-N^3-(3-fluoro-4-(4-(indolin-2-on-1-yl)piperidin-1-yl)phenyl)-1H-1,2,4-triazole-3,5-diamine] was tested, and the IC50 was over 20000 nM.

Same assay, conditions: Hela cells, phospho-Akt chemiluminescence normalized to relative cell number; compounds of formula (Ia), Table 1; read-out: IC50
In the case of `Nc1nc(Nc2ccc(OCCN3CCCC3)cc2)nn1-c1cc2c(nn1)-c1ccccc1CCC2` [Compound 1, 1-(6,7-dihydro-5H-benzo[6,7]cyclohepta[1,2-c]pyridazin-3-yl)-N^3-(4-(2-(pyrrolidin-1-yl)ethoxy)phenyl)-1H-1,2,4-triazole-3,5-diamine], the IC50 is reported as under 1000 nM.
Molecule `Nc1nc(Nc2ccc(N3CCN(C4CCCCC4)CC3)cc2)nn1-c1cc2c(nn1)-c1ccccc1CCC2` [Compound 3, N^3-(4-(4-cyclohexanylpiperazin-1-yl)phenyl)-1-(6,7-dihydro-5H-benzo[6,7]cyclohepta[1,2-c]pyridazin-3-yl)-1H-1,2,4-triazole-3,5-diamine] has an IC50 of under 1000 nM.
`Nc1nc(Nc2ccc(N3CCC(N4CCCC4)CC3)c(F)c2)nn1-c1cc2c(nn1)-c1ccccc1CCC2` [Compound 4] was tested, and the IC50 was under 1000 nM.
`CN1CCN(c2ccc(Nc3nc(N)n(-c4cc5c(nn4)-c4ccccc4CCC5)n3)cc2F)CC1c1ccccc1` (stereo not drawn) [Compound 5, 1-(6,7-dihydro-5H-benzo[6,7]cyclohepta[1,2-c]pyridazin-3-yl)-N^3-(3-fluoro-4-(4-methyl-3-phenylpiperazin-1-yl)phenyl)-1H-1,2,4-triazole-3,5-diamine] gave an IC50 of over 20000 nM.
`Nc1nc(Nc2ccc(N3CCC(N4CCCCC4)CC3)c(F)c2)nn1-c1cc2c(nn1)-c1ccccc1CCC2` [Compound 6, 1-(6,7-dihydro-5H-benzo[6,7]cyclohepta[1,2-c]pyridazin-3-yl)-N^3-(3-fluoro-(4-(4-piperidin-1-yl)piperidin-1-yl)phenyl)-1H-1,2,4-triazole-3,5-diamine] was tested, and the IC50 was under 1000 nM.
Work on `Nc1nc(Nc2ccc(N3CCN(C4CC5CCC4C5)CC3)nc2)nn1-c1cc2c(nn1)-c1ccccc1CCC2` (stereo not drawn) [Compound 8, 1-(6,7-dihydro-5H-benzo[6,7]cyclohepta[1,2-c]pyridazin-3-yl)-N^3-(6-(4-(bicyclo[2.2.1]heptan-2-yl)piperazin-1-yl)pyridin-3-yl)-1H-1,2,4-triazole-3,5-diamine] yielded an IC50 of 1000 to 10000 nM.
`Nc1nc(Nc2ccc(N3CCC(N4CCOCC4)CC3)c(F)c2)nn1-c1cc2c(nn1)-c1ccccc1CCC2` [Compound 9, 1-(6,7-dihydro-5H-benzo[6,7]cyclohepta[1,2-c]pyridazin-3-yl)-N^3-(3-fluoro-4-(4-(morpholin-4-yl)piperidin-1-yl)phenyl)-1H-1,2,4-triazole-3,5-diamine] showed an IC50 of 1000 to 10000 nM.
Molecule `Nc1nc(Nc2ccc(C(=O)N3CCN(C4CCCC4)CC3)cc2)nn1-c1cc2c(nn1)-c1ccccc1CCC2` [Compound 10, 1-(6,7-dihydro-5H-benzo[6,7]cyclohepta[1,2-c]pyridazin-3-yl)-N^3-(4-(4-(cyclopentyl)piperazin-1-ylcarbonyl)phenyl)-1H-1,2,4-triazole-3,5-diamine] has an IC50 of 1000 to 10000 nM.
`Nc1nc(Nc2ccc3c(c2)NC(=O)CCC3)nn1-c1cc2c(nn1)-c1ccccc1CCC2` [Compound 11, 1-(6,7-dihydro-5H-benzo[6,7]cyclohepta[1,2-c]pyridazin-3-yl)-N^3-(4,5-dihydro-1H-benzo[b]azepin-2(3H)-on-8-yl)-1H-1,2,4-triazole-3,5-diamine] was tested, and the IC50 was under 1000 nM.
`Nc1nc(Nc2ccc(C(=O)NCCN3CCCC3)cc2)nn1-c1cc2c(nn1)-c1ccccc1CCC2` [Compound 12, 1-(6,7-dihydro-5H-benzo[6,7]cyclohepta[1,2-c]pyridazin-3-yl)-N^3-(4-((2-pyrrolidin-1-ylethyl)aminocarbonyl)phenyl)-1H-1,2,4-triazole-3,5-diamine] was tested, and the IC50 was under 1000 nM.
`CN(C)Cc1nc2cc(Nc3nc(N)n(-c4cc5c(nn4)-c4ccccc4CCC5)n3)ccc2[nH]1` [Compound 13, 1-(6,7-dihydro-5H-benzo[6,7]cyclohepta[1,2-c]pyridazin-3-yl)-N^3-(2-((dimethylamino)methyl)-1H-benzo[d]imidazol-5-yl)-1H-1,2,4-triazole-3,5-diamine] gave an IC50 of 1000 to 10000 nM.
With `CC1(C)CCCC(C)(C)N1CCOc1ccc(Nc2nc(N)n(-c3cc4c(nn3)-c3ccccc3CCC4)n2)cc1` [Compound 14, 1-(6,7-dihydro-5H-benzo[6,7]cyclohepta[1,2-c]pyridazin-3-yl)-N^3-(4-(2,2,6,6-tetramethylpiperidin-1-yl)ethoxyphenyl)-1H-1,2,4-triazole-3,5-diamine] the IC50 was 1000 to 10000 nM.
`CC1CN(C2CCCC2)CCN1c1ccc(Nc2nc(N)n(-c3cc4c(nn3)-c3ccccc3CCC4)n2)cc1` (stereo not drawn) [Compound 16, 1-(6,7-dihydro-5H-benzo[6,7]cyclohepta[1,2-c]pyridazin-3-yl)-N^3-(4-(4-cyclopentyl-2-methylpiperazin-1-yl)phenyl)-1H-1,2,4-triazole-3,5-diamine] showed an IC50 of under 1000 nM.
`CC1CN(c2ccc(Nc3nc(N)n(-c4cc5c(nn4)-c4ccccc4CCC5)n3)cc2)CC(C)N1` (stereo not drawn) [Compound 17, 1-(6,7-dihydro-5H-benzo[6,7]cyclohepta[1,2-c]pyridazin-3-yl)-N^3-(4-(3,5-dimethylpiperazin-1-yl)phenyl)-1H-1,2,4-triazole-3,5-diamine] showed an IC50 of under 1000 nM.
`N#Cc1cc(Nc2nc(N)n(-c3cc4c(nn3)-c3ccccc3CCC4)n2)ccc1N1CCC(N2CCCC2)CC1` [Compound 18, 1-(6,7-dihydro-5H-benzo[6,7]cyclohepta[1,2-c]pyridazin-3-yl)-N^3-(4-(4-(pyrrolidin-1-yl)piperidin-1-yl)-3-cyanophenyl)-1H-1,2,4-triazole-3,5-diamine] gave an IC50 of under 1000 nM.
Work on `CN(C)CCNC(=O)c1ccc(Nc2nc(N)n(-c3cc4c(nn3)-c3ccccc3CCC4)n2)cc1` [Compound 19, 1-(6,7-dihydro-5H-benzo[6,7]cyclohepta[1,2-c]pyridazin-3-yl)-N^3-(4-((2-(dimethylamino)ethyl)-aminocarbonyl)phenyl)-1H-1,2,4-triazole-3,5-diamine] yielded an IC50 of 1000 to 10000 nM.
With `COCCNC(=O)c1ccc(Nc2nc(N)n(-c3cc4c(nn3)-c3ccccc3CCC4)n2)cc1` [Compound 20, 1-(6,7-dihydro-5H-benzo[6,7]cyclohepta[1,2-c]pyridazin-3-yl)-N^3-(4-((2-(methoxy)ethyl)amino-carbonyl)phenyl)-1H-1,2,4-triazole-3,5-diamine] the IC50 was 1000 to 10000 nM.
